Values of other authors in patent US20120283197A1, “Compositions Comprising a Glucose Anti-Metabolite, BHA, and/or BHT” (priority 2011, published 2012).
Each block holds one compound with its values, some of them ahead of it.

Key:
[1] = mice, dogs, and other species
[2] = rats, fed for 18 months, 140 mg/Kg body weight per day
[3] = tested on: adipocytes; details: rats, fed for 18 months, 140 mg/Kg body weight per day
[4] = tested on: hexokinase or other glycolytic enzymes; details: extracts of mouse lung
[5] = tested on: cultured insulin secreting cells

Compound: O=C(CO)[C@@H](O)[C@@H](O)[C@H](O)[C@H](O)CO [Mannoheptulose, mannoheptulose]
plasma insulin levels and/or insulin sensitivity [1]: lower plasma insulin levels and/or increase insulin sensitivity

effect on hexokinase or other glycolytic enzymes [4]: no effect
Compound: Cc1cc(C(C)(C)C)c(O)c(C(C)(C)C)c1 [BHT, butylated hydroxytoluene]
insulin sensitivity [2]: increased insulin sensitivity
age-related reduction in insulin-stimulated glucose transport in adipocytes [3]: partially ameliorated

Compound: COc1ccc(O)c(C(C)(C)C)c1 [BHA, butylated hydroxyanisole]
alloxan-induced increase in insulin secretion [5]: prevent the alloxan-induced increase in insulin secretion
negative effects of alloxan [5]: blocked the negative effects of alloxan
